# Assay results from patent publication US8648086B2, “5,6-bicyclic heteroaryl-containing urea compounds as kinase inhibitors” (Ascepion Pharmaceuticals, Inc., priority 2009, dated 2014).
# Tests used:
# c-Kit = target: T1, c-Kit (Homo sapiens, UniProt P10721); assay: KINOMEscan competition binding assay, c-Kit; details: compound at 100 nM; lower number indicates stronger hit
# T1 construct: purchased KINOMEscan service (Ambit Biosciences, San Diego)
# Method: (§1) A standard competition binding assay can be used to test the ability of a compound of this invention on competing with both intended and unintended kinases in vitro. To screen a compound against a large number of human kinases, a competition binding assay with an active-site dependent binding technology was performed by KINOMEscan service (Ambit Biosciences, San Diego, Cal., USA). Three components were combined in this assay—DNA-tagged kinase, immobilized ligand, and the test compound. The ability of the test compound to compete with the immobilized ligand was measured by quantitative PCR of the DNA of the DNA tag. A number of the compounds of this invention were screened at the concentration of 100 nM by this binding assay, and the results were reported as “% Ctrl,” and the lower number indicates stronger “hit” in this matrix.
# CSF-1R = target: T2, CSF-1R (Homo sapiens, UniProt P07333); assay: KINOMEscan competition binding assay, CSF-1R; details: compound at 100 nM; lower number indicates stronger hit
# T2 construct: purchased KINOMEscan service (Ambit Biosciences, San Diego)
# T2 sequence (P07333 20-972): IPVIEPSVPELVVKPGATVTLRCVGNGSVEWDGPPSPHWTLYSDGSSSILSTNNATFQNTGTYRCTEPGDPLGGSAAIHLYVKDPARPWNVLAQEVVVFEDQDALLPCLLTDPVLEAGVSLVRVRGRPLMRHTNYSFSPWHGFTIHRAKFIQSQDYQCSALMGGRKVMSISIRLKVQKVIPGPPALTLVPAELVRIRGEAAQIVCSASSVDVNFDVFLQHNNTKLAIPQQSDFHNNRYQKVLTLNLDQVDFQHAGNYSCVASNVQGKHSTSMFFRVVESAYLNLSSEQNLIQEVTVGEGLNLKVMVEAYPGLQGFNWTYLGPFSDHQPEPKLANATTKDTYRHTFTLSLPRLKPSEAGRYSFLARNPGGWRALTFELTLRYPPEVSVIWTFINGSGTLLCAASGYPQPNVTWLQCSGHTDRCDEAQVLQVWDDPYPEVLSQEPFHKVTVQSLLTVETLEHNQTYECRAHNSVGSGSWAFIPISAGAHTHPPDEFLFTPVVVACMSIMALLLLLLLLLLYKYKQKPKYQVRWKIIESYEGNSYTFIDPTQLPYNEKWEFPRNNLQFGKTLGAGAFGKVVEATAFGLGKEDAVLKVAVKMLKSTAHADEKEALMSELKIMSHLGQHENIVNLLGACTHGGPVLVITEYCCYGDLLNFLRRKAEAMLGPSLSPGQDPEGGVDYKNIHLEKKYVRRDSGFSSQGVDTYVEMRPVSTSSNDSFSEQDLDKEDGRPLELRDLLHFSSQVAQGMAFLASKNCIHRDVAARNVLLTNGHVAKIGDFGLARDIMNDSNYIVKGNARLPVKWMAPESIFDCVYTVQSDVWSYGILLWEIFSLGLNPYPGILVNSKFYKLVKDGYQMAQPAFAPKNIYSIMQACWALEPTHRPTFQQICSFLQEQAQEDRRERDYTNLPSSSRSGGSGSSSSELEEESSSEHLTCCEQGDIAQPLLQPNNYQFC
# Method: as §1
# HT-29 human colon cancer = assay: In vivo anti-tumor efficacy, HT-29 xenograft; details: Colon cancer HT-29, nu/nu Balb/c mice, 50 mg/kg oral once per day, n = 2 × 3
# Method: Female (nu/nu) Balb/c athymic mice at 4-6 weeks of age were injected subcutaneously (s.c.) with MDA-MB-231 human breast cancer cells, A549 human non-small cell lung cancer cells, U87-MG human glioblastoma cells, PC-3 human prostate cancer cells, HT-29 human colon cancer, BEL-7404 human hepatocellular carcinoma, or MKN-45 human gastric cancer cells (ATCC, 5×10^6 cells suspended in 100 μl DMEM medium). Treatment was initiated after the tumor mass grown from s.c. implanted tumor cells reached a median volume of 200-400 mm^3. Mice were randomized into groups with three in each group for small-sample efficacy tests such that the median tumor volume is nearly equal among all groups. […] Tumor volumes were assessed at least twice weekly by caliper measurement from the start of treatment. Tumor volume was calculated using the formula ½×L×W^2 (L: length of tumor's long axis, W: length of tumor's short axis). […] The efficacy of compounds in reducing tumor growth was assessed by the index Tumor Growth Inhibition (TGI). TGI for a given treatment period was calculated using the group mean tumor volumes according to the formula: TGI=100×(VVehicle—group−VTreatment—group)÷VVehicle—group wherein VVehicle—group represents the mean tumor volume for the group treated with vehicle and VTreatment—group represents the mean tumor volume of the group treated with a compound.
# [1] = test system: MDA-MB-231 human breast cancer cells; assay: In vivo anti-tumor efficacy, MDA-MB-231 xenograft; details: Breast cancer MDA-MB-231, nu/nu Balb/c mice
# Method: Female (nu/nu) Balb/c athymic mice at 4-6 weeks of age were injected subcutaneously (s.c.) with MDA-MB-231 human breast cancer cells, A549 human non-small cell lung cancer cells, U87-MG human glioblastoma cells, PC-3 human prostate cancer cells, HT-29 human colon cancer, BEL-7404 human hepatocellular carcinoma, or MKN-45 human gastric cancer cells (ATCC, 5×10^6 cells suspended in 100 μl DMEM medium). Treatment was initiated after the tumor mass grown from s.c. implanted tumor cells reached a median volume of 200-400 mm^3. Mice were randomized into groups with three in each group for small-sample efficacy tests such that the median tumor volume is nearly equal among all groups. For large-sample efficacy tests, mice were randomized into groups with thirteen or fourteen in each group. Each group was treated either with compounds (dissolved in 2:1 mixture of PEG400 and 0.01N HCl (v/v)) or without compounds (vehicle only, 2:1 mixture of PEG400 and 0.01N HCl (v/v)) once per day at dose 12.5, 25, 50 or 100 mg/kg by oral gavage. Tumor volumes were assessed at least twice weekly by caliper measurement from the start of treatment. Tumor volume was calculated using the formula ½×L×W^2 (L: length of tumor's long axis, W: length of tumor's short axis). Treatment was applied for at least two weeks or until the tumor volume reaches a size of ˜2500 mm^3 or greater. Mice were humanly sacrificed after the experiment.
# (§2) The efficacy of compounds in reducing tumor growth was assessed by the index Tumor Growth Inhibition (TGI). TGI for a given treatment period was calculated using the group mean tumor volumes according to the formula: TGI=100×(VVehicle—group−VTreatment—group)÷VVehicle—group wherein VVehicle—group represents the mean tumor volume for the group treated with vehicle and VTreatment—group represents the mean tumor volume of the group treated with a compound.
# [2] = test system: BEL-7404 human hepatocellular carcinoma; assay: In vivo anti-tumor efficacy, BEL-7404 xenograft; details: Liver cancer BEL-7404, nu/nu Balb/c mice, 50 mg/kg oral once per day, n = 2 × 3
# Method: Female (nu/nu) Balb/c athymic mice at 4-6 weeks of age were injected subcutaneously (s.c.) with MDA-MB-231 human breast cancer cells, A549 human non-small cell lung cancer cells, U87-MG human glioblastoma cells, PC-3 human prostate cancer cells, HT-29 human colon cancer, BEL-7404 human hepatocellular carcinoma, or MKN-45 human gastric cancer cells (ATCC, 5×10^6 cells suspended in 100 μl DMEM medium). Treatment was initiated after the tumor mass grown from s.c. implanted tumor cells reached a median volume of 200-400 mm^3. Mice were randomized into groups with three in each group for small-sample efficacy tests such that the median tumor volume is nearly equal among all groups. […] Tumor volumes were assessed at least twice weekly by caliper measurement from the start of treatment. Tumor volume was calculated using the formula ½×L×W^2 (L: length of tumor's long axis, W: length of tumor's short axis). […]
# as §2
# EPHA2 = target: T3, EPHA2 (Homo sapiens, UniProt P29317); assay: KINOMEscan competition binding assay, EPHA2; details: compound at 100 nM; lower number indicates stronger hit
# T3 construct: purchased KINOMEscan service (Ambit Biosciences, San Diego)
# T3 sequence (P29317 24-976): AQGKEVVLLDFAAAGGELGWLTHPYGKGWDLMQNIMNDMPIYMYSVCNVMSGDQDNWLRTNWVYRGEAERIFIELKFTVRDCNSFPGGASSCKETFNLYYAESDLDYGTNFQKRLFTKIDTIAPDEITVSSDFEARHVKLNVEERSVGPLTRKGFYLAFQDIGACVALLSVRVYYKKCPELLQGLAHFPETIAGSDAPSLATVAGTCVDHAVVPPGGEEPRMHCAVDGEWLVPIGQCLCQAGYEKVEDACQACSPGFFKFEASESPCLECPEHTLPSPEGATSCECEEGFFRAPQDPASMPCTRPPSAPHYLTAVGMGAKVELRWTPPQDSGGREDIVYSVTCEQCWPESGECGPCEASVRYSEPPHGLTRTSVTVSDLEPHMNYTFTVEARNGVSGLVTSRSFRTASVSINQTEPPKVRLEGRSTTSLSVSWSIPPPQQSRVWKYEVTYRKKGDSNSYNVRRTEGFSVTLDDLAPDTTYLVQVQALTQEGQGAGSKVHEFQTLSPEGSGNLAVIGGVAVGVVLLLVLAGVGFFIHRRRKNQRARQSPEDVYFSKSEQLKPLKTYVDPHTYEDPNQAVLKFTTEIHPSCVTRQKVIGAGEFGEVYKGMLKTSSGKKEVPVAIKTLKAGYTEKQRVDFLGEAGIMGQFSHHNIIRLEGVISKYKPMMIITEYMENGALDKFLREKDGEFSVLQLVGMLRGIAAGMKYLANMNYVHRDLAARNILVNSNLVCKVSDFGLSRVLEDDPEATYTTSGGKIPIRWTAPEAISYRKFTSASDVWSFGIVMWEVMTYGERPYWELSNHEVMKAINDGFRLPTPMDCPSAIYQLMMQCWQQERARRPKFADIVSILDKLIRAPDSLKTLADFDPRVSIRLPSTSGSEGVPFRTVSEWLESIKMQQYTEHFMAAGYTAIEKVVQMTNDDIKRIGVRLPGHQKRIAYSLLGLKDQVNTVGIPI
# Method: as §1
# PDGFRβ = target: T4, PDGFRβ (Homo sapiens, UniProt P09619); assay: PDGFRβ cell-based assay (phospho-PDGFRβ ELISA, transfected CHO cells); details: compound at 100 nM, read-out: % PDGFRβ kinase activity remains
# T4 construct: expressed in transfected cells; host or cells: CHO cells, pcDNA3.1 plasmid
# T4 sequence (P09619 33-1106, species assumed): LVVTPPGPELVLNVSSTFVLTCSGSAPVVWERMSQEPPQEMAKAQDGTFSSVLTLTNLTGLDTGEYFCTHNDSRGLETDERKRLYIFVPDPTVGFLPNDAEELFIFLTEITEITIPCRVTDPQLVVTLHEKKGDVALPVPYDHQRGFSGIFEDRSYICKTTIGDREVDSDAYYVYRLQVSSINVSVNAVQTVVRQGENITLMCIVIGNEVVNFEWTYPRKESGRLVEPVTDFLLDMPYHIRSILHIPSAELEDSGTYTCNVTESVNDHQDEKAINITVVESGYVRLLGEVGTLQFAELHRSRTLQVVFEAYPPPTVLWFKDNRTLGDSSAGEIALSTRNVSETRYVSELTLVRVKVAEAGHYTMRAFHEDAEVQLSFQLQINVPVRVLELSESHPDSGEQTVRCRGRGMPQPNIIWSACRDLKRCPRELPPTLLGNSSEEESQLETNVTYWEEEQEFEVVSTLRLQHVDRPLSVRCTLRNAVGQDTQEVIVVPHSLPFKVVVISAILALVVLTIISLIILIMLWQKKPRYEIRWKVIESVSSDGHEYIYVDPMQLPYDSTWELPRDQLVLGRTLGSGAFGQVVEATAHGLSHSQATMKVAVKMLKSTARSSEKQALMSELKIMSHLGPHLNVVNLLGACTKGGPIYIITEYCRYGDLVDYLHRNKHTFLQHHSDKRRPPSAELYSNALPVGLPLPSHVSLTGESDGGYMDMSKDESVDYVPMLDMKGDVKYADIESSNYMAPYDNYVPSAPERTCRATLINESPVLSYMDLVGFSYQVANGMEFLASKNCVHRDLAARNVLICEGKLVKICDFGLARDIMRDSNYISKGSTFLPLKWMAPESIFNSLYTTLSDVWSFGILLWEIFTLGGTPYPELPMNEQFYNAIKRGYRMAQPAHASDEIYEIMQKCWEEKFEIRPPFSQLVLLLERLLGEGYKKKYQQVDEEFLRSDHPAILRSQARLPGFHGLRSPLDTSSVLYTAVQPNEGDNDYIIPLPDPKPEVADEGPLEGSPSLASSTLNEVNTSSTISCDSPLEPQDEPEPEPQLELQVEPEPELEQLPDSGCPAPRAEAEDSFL
# Summary of the method: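 CHO cells transiently transfected with full-length human PDGFRβ, serum-starved overnight in DMEM, then treated 2 h with compound (0.5–500 nM) before 20% FBS stimulation. Lysates of ~5×10^5 cells analysed by sandwich ELISA for phospho- and total PDGFRβ with streptavidin-HRP chemiluminescent detection.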
# [3] = 50 mg/kg oral once per day, n = 2 × 3
# T1 sequence (P10721 26-976): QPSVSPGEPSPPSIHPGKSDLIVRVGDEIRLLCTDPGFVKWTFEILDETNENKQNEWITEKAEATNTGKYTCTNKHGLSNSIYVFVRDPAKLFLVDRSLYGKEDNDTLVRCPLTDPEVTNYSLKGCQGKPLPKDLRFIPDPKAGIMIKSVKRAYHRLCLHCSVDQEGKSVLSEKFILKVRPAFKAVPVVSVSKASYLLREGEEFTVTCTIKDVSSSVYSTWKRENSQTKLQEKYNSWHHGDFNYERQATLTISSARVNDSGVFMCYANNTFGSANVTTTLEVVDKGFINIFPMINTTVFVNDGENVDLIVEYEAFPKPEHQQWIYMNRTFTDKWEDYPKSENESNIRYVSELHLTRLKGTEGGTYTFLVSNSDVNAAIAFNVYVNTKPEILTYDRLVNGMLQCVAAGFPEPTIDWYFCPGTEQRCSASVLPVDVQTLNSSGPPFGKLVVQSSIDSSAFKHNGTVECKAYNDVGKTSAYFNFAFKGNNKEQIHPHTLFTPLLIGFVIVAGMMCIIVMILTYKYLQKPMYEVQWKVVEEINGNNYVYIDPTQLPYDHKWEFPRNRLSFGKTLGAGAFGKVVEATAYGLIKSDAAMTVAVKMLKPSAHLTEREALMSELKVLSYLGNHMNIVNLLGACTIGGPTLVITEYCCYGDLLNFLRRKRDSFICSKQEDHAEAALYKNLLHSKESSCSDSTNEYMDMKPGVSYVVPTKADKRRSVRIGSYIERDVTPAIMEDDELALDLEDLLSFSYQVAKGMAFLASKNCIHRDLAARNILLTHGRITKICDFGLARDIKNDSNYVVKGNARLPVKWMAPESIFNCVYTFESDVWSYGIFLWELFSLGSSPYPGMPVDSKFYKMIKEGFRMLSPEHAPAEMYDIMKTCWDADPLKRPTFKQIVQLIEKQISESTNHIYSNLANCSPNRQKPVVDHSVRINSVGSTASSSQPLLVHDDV
c-Kit % Ctrl (c-Kit) [% Ctrl],CSF-1R % Ctrl (CSF-1R) [% Ctrl],EPHA2 % Ctrl (EPHA2) [% Ctrl],remaining activity at 0.1 µM (PDGFRβ) [%],Structure (SMILES),Tumor Growth Inhibition (TGI) (HT-29 human colon cancer),"Tumor Growth Inhibition (TGI) ([1]; 12.5 mg/kg oral once per day, n = 6 × 14)","Tumor Growth Inhibition (TGI) ([1]; 25 mg/kg oral once per day, n = 6 × 14)","Tumor Growth Inhibition (TGI) [1, 3]","Tumor Growth Inhibition (TGI) ([1]; 50 mg/kg oral once per day, n = 6 × 14)","Tumor Growth Inhibition (TGI) ([1]; 100 mg/kg oral once per day, n = 6 × 14)",Tumor Growth Inhibition (TGI) [2]
3.8,3.4,12,,"Cl.O=C(Nc1cc(Cl)ccc1F)Nc1cccc2c1ccn2Cc1ccnc2[nH]ccc12 [Example 56, 1-(2-Fluoro-5-chlorophenyl)-3-[1-(1H-pyrrolo[2,3-b]pyridin-4-ylmethyl)-1H-indol-4-yl]urea hydrochloride]",A (the TGI is greater or equal to 50%),A (the TGI is greater or equal to 50%),A (the TGI is greater or equal to 50%),A (the TGI is greater or equal to 50%),A (the TGI is greater or equal to 50%),A (the TGI is greater or equal to 50%),A (the TGI is greater or equal to 50%)
,,,≥ 70,"Cl.O=C(Nc1cccc(C(F)(F)F)c1)Nc1cccc2c1ccn2Cc1ccnc2[nH]ccc12 [Example 51, 1-(3-Trifluoromethylphenyl)-3-[1-(1H-pyrrolo[2,3-b]pyridin-4-ylmethyl)-1H-indol-4-yl]urea hydrochloride]",,,,A (the TGI is greater or equal to 50%),,,
